According to patent US20250049812A1, “Compounds that Inhibit Necroptosis and Their Preparation Methods” (SHANGHAI INSTITUTE OF ORGANIC CHEMISTRY, CHINESE ACADEMY OF …, priority 2021, published 2025):

system: Jurkat FADD (−/−) Cells; assay: TNF-α induced necroptosis of Jurkat FADD-deficient cells (CellTiter-Glo cell survival); type: cell-based, human; settings: Homo sapiens, Jurkat, 13 h
Method: 1. Cell Activity Testing System (TNF-α Induces the Necroptosis of Jurkat Cells, the Human Leukemia Cells Deficient in FADD).
(1) Cell culture: Jurkat FADD-deficient cells were cultured in an RPMI 1640 medium with 10% fetal bovine serum (FBS), 100 U/mL penicillin, and 100 […]. The cells were cultured in a cell culture incubator at 37° C. with 5% CO2. And all the cells were cryopreserved in a complete medium containing 5-10% DMSO. Medium change and passage were performed 3-4 times per week.
(4) Experimental scheme: The system of TNF-α inducing the necroptosis of Jurkat FADD-deficient cells was used to screen for compounds with RIPKl kinase inhibitory activity.
Jurkat FADD-deficient cells were evenly inoculated into a 384-well plate with each well added with a 40 μL complete culture medium, followed by the addition of 5 μL of the under-testing compound to each well. The initial concentration of the compounds was set at 25 μM (for some compounds with higher activity, the initial concentration was set at 0.5 μM), with a three-fold gradient dilution, totaling 12 gradient points. Three replicate wells were set for each compound. In addition, there was a blank control group and a control group with TNFα stimulation only. After the compound was added, the mixture needed to be centrifuged and incubated in a cell culture incubator at 37° C. containing 5% CO2 for 1 hour. After that, 5 μL of 5 ng/mL TNFα was added to stimulate the occurrence of necroptosis. After centrifugation and mixing, the mixture was placed in the cell culture incubator for 13 hours (until the cell death rate reaches 65% in the group with only TNF-α), with a total volume of 50 μL per well. Then, the steps below were followed to test the cell survival rate.
The CellTiter-Glo® Buffer was removed from the reagent kit, equilibrated to room temperature, and used to dissolve the CellTiter-Glo® Substrate. The CellTiter-Glo® Reagent obtained could be directly used for the experiment.
15 μL of CellTiter-Glo® Reagent which has been equilibrated to room temperature was added to each well, and incubated in the dark for 15 minutes. After that, a microplate reader (Enspire Multimode Plate Reader of PerkinElmer, USA) was used to measure the chemiluminescence.

| SMILES | IC50 |
| --- | --- |
| COC(=O)Cn1cc2c3c(cccc31)N(C)C(=O)C(NC(=O)c1nnc(Cc3ccccc3)[nH]1)C2 (racemic) [T-29, (±)-methyl2-(3-(5-benzyl-4H-1,2,4-triazole-3-carboxamide)-1-methyl-2-oxo-1,2,3,4-tetrahydro-6H-azacyclo [4,3,2-cd]indol-6-yl)acetate] | < 10 nM |
| CN1C(=O)C(NC(=O)c2nnc(Cc3ccccc3)[nH]2)Cc2cn(CCO)c3cccc1c23 (racemic) [T-33, (±)-5-benzyl-N-(6-(2-hydroxyethyl)-1-methyl-2-oxo-2,3,4,6-tetrahydro-1H-azacyclo [4,3,2-cd]indol-3-yl)-4H-1,2,4-triazole-3-carboxamide] | 10 to 100 nM |
| CN1C(=O)C(NC(=O)c2nnc(Cc3ccccc3)[nH]2)Cc2cn(CCN3CCOCC3)c3cccc1c23 (racemic) [T-38, (±)-5-benzyl-N-(1-methyl-6-(2-morpholinoethyl)-2-oxo-2,3,4,6-tetrahydro-1H-azacyclo [4,3,2-cd]indol-3-yl)-4H-1,2,4-triazole-3-carboxamide] | < 10 nM |

same assay, conditions: Homo sapiens; TNF-α induced necroptosis, Jurkat FADD-deficient cells, 13 hours, CellTiter-Glo; read-out: IC50

| SMILES | IC50 |
| --- | --- |
| CN1C(=O)C(NC(=O)c2nnc(Cc3ccccc3)[nH]2)Cc2cn(CC#N)c3cccc1c23 (racemic) [T-25, (±)-5-benzyl-N-(6-(cyanomethyl)-1-methyl-2-oxo-2,3,4,6-tetrahydro-1H-azacyclo [4,3,2-cd]indol-3-yl)-4H-1,2,4-triazole-3-carboxamide] | < 10 nM |
| CN1C(=O)C(NC(=O)c2nnc(Cc3ccccc3)[nH]2)Cc2cn(CCF)c3cccc1c23 (racemic) [T-26, (±)-5-benzyl-N-(6-(2-fluoroethyl)-1-methyl-2-oxo-2,3,4,6-tetrahydro-1H-azacyclo [4,3,2-cd]indol-3-yl)-4H-1,2,4-triazole-3-carboxamide] | 10 to 100 nM |
| CC(C#N)Cn1cc2c3c(cccc31)N(C)C(=O)C(NC(=O)c1nnc(Cc3ccccc3)[nH]1)C2 (racemic) [T-27, (±)-5-benzyl-N-(6-(2-cyanopropyl)-1-methyl-2-oxo-2,3,4,6-tetrahydro-1H-azacyclo [4,3,2-cd]indol-3-yl)-4H-1,2,4-triazole-3-carboxamide] | 10 to 100 nM |
| COCCn1cc2c3c(cccc31)N(C)C(=O)C(NC(=O)c1nnc(Cc3ccccc3)[nH]1)C2 (racemic) [T-28, (±)-5-benzyl-N-(6-(2-methoxyethyl)-1-methyl-2-oxo-2,3,4,6-tetrahydro-1H-azacyclo [4,3,2-cd]indol-3-yl)-4H-1,2,4-triazole-3-carboxamide] | < 10 nM |
| CN1C(=O)C(NC(=O)c2nnc(Cc3ccccc3)[nH]2)Cc2cn(CC(=O)O)c3cccc1c23 (racemic) [T-30, (±)-2-(3-(5-benzyl-4H-1,2,4-triazole-3-carboxamide)-1-methyl-2-oxo-1,2,3,4-tetrahydro-6H-azacyclo [4,3,2-cd]indol-6-yl)acetic Acid] | 100 to 1000 nM |
| CN1C(=O)C(NC(=O)c2nnc(Cc3ccccc3)[nH]2)Cc2cn(CC(N)=O)c3cccc1c23 (racemic) [T-31, (±)-N-(6-(2-amino-2-oxoethyl)-1-methyl-2-oxo-2,3,4,6-tetrahydro-1H-azacyclo [4,3,2-cd]indol-3-yl)-5-benzyl-4H-1,2,4-triazole-3-carboxamide] | 100 to 1000 nM |
| CN1C(=O)C(N2CCc3c(nn(Cc4ccccc4)c3Cl)C2=O)Cc2c[nH]c3cccc1c23 (racemic) [T-32, (±)-3-(2-benzyl-3-chloro-7-oxo-2,4,5,7-tetrahydro-6H-pyrazole [3,4-c]pyridin-6-yl)-1-methyl-1,3,4,6-tetrahydro-2H-azacyclo [4,3,2-cd] indole-2-one] | < 10 nM |
| CN1C(=O)C(NC(=O)c2nnc(Cc3ccccc3)[nH]2)Cc2cn(Cc3cnn(C)c3)c3cccc1c23 (racemic) [T-35, (±)-5-benzyl-N-(1-methyl-6-((1-methyl-1H-pyrazol-4-yl)methyl)-2-oxo-2,3,4,6-tetrahydro-1H-azacyclo [4,3,2-cd]indol-3-yl)-4H-1,2,4-triazole-3-carboxamide] | < 10 nM |
| CN1C(=O)C(NC(=O)c2nnc(Cc3ccccc3)[nH]2)Cc2cn(-c3ccnn3C)c3cccc1c23 (racemic) [T-36, (±)-5-benzyl-N-(1-methyl-6-(1-methyl-1H-pyrazol-5-yl)-2-oxo-2,3,4,6-tetrahydro-1H-azacyclo [4,3,2-cd]indol-3-yl)-4H-1,2,4-triazole-3-carboxamide] | < 10 nM |
| CN1C(=O)C(NC(=O)c2nnc(Cc3ccccc3)[nH]2)Cc2cn(-c3ccn(C)n3)c3cccc1c23 (racemic) [T-37, (±)-5-benzyl-N-(1-methyl-6-(1-methyl-1H-pyrazol-3-yl)-2-oxo-2,3,4,6-tetrahydro-1H-azacyclo [4,3,2-cd]indol-3-yl)-4H-1,2,4-triazole-3-carboxamide] | < 10 nM |
| CN1C(=O)C(NC(=O)c2nnc(Cc3ccccc3)[nH]2)Cc2cn(C(=O)C(C)(C)C)c3cccc1c23 (racemic) [T-39, (±)-5-benzyl-N-(1-methyl-2-oxo-6-pivaloyl-2,3,4,6-tetrahydro-1H-azacyclo [4,3,2-cd]indol-3-yl)-4H-1,2,4-triazole-3-carboxamide] | 10 to 100 nM |
| COc1cccnc1-n1cc2c3c(cccc31)N(C)C(=O)C(NC(=O)c1nnc(Cc3ccccc3)[nH]1)C2 (racemic) [T-41, (±)-5-benzyl-N-(6-(3-methoxypyridin-2-yl)-1-methyl-2-oxo-2,3,4,6-tetrahydro-1H-azacyclo [4,3,2-cd]indol-3-yl)-4H-1,2,4-triazole-3-carboxamide] | < 10 nM |
| COCc1ccncc1-n1cc2c3c(cccc31)N(C)C(=O)C(NC(=O)c1nnc(Cc3ccccc3)[nH]1)C2 (racemic) [T-42, (±)-5-benzyl-N-(6-(4-(methoxymethyl)pyridin-3-yl)-1-methyl-2-oxo-2,3,4,6-tetrahydro-1H-azacyclo [4,3,2-cd]indol-3-yl)-4H-1,2,4-triazole-3-carboxamide] | < 10 nM |
| COC(=O)c1cccnc1-n1cc2c3c(cccc31)N(C)C(=O)C(NC(=O)c1nnc(Cc3ccccc3)[nH]1)C2 (racemic) [T-43, (±)-2-(3-(5-benzyl-4H-1,2,4-triazole-3-carboxamide)-1-methyl-2-oxo-1,2,3,4-tetrahydro-6H-azacyclo [4,3,2-cd]indol-6-yl)nicotinate] | < 10 nM |
| Cc1cccnc1-n1cc2c3c(cccc31)N(C)C(=O)C(NC(=O)c1nnc(Cc3ccccc3)[nH]1)C2 (racemic) [T-44, (±)-5-benzyl-N-(1-methyl-6-(3-methylpyridin-2-yl)-2-oxo-2,3,4,6-tetrahydro-1H-azacyclo [4,3,2-cd]indol-3-yl)-4H-1,2,4-triazole-3-carboxamide] | < 10 nM |
| CN1C(=O)C(NC(=O)c2nnc(Cc3ccccc3)[nH]2)Cc2c[nH]c3cc(C#Cc4cnn(C)c4)cc1c23 (racemic) [T-45, (±)-5-benzyl-N-(1-methyl-8-((1-methyl-1H-pyrazol-4-yl)ethynyl)-2-oxo-2,3,4,6-tetrahydro-1H-aza [4,3,2-cd]indol-3-yl)-4H-1,2,4-triazole-3-carboxamide] | < 10 nM |
| CN1C(=O)C(NC(=O)c2nnc(Cc3ccccc3)[nH]2)Cc2cn(-c3ncccc3C(=O)O)c3cccc1c23 (racemic) [T-46, (±)-2-(3-(5-benzyl-4H-1,2,4-triazole-3-carboxamide)-1-methyl-2-oxo-1,2,3,4-tetrahydro-6H-azacyclo [4,3,2-cd]indol-6-yl)nicotinic Acid] | 100 to 1000 nM |
| CN1C(=O)C(NC(=O)c2nnc(Cc3ccccc3)[nH]2)Cc2cn(-c3ncccc3O)c3cccc1c23 (racemic) [T-47, (±)-5-benzyl-N-(6-(3-hydroxypyridin-2-yl)-1-methyl-2-oxo-2,3,4,6-tetrahydro-1H-azacyclo [4,3,2-cd]indol-3-yl)-4H-1,2,4-triazole-3-carboxamide] | 100 to 1000 nM |
| CN1C(=O)C(NC(=O)c2nnc(Cc3ccccc3)[nH]2)Cc2cn(-c3cnccc3CO)c3cccc1c23 (racemic) [T-48, (±)-5-benzyl-N-(6-(4-(hydroxymethyl)pyridin-3-yl)-1-methyl-2-oxo-2,3,4,6-tetrahydro-1H-azacyclo [4,3,2-cd]indol-3-yl)-4H-1,2,4-triazole-3-carboxamide] | < 10 nM |
| CN1C(=O)C(NC(=O)c2nnc(Cc3ccccc3)[nH]2)Cc2cn(-c3ncccc3CO)c3cccc1c23 (racemic) [T-49, (±)-5-benzyl-N-(6-(3-(hydroxymethyl)pyridin-2-yl)-1-methyl-2-oxo-2,3,4,6-tetrahydro-1H-azacyclo [4,3,2-cd]indol-3-yl)-4H-1,2,4-triazole-3-carboxamide] | < 10 nM |
| COC(=O)c1nccnc1-n1cc2c3c(cccc31)N(C)C(=O)C(NC(=O)c1nnc(Cc3ccccc3)[nH]1)C2 (racemic) [T-50, (±)-3-(3-(5-benzyl-4H-1,2,4-triazole-3-carboxamide)-1-methyl-2-oxo-1,2,3,4-tetrahydro-6H-azacyclo [4,3,2-cd]indol-6-yl)methyl pyrazine-2-carboxylate] | < 10 nM |
